Data reported in patent US20260295053A1, “COMPOUNDS FOR DEGRADATION AND INHIBITION OF KRAS (G12D) PROTEIN” (Shenzhen Ionova Life Science Co., Ltd., priority 2023, published 2026).

What was measured:
[1] = tested on: AsPC-1 cells; assay: AsPC-1 cell proliferation assay (CellTiter Glo); type: cell-based; settings: Homo sapiens, ASPC1, 144 h, 6 days
In short: (§1)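 Read-outs were KRAS G12D immunofluorescence against β-actin after 24 h (DC50) and CellTiter Glo luminescence after 6 days (IC50). Compounds were titrated 1:3 from […] to 1.5 nM final on AsPC-1 cells at 37 °C, 5% CO2.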

[2] = target: T1, KRAS (G12D) (Homo sapiens, UniProt P01116, G12D); assay: KRAS (G12D) cellular degradation assay in AsPC-1 cells; type: cell-based; settings: 24 hours, antibody fluorescence (Odyssey CLX), DC50 half-maximal degradation concentration
T1 construct: in-cell western with KRAS G12D antibody after 24 h
In short: as §1

T1 sequence (P01116 1-188 isoform P01116-2 G12D): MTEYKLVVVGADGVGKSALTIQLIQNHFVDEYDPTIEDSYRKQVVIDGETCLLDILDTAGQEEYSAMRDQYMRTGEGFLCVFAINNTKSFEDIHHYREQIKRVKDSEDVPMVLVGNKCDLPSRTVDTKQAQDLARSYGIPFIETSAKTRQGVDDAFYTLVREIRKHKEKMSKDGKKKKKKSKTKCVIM

IC50 [1]	DC50 [2]	SMILES
< 10 nM	< 10 nM	CCn1nccc1-c1ccc([C@H](CO)NC(=O)[C@@H]2C[C@@H](O)CN2C(=O)[C@H](C(C)C)n2cc(-c3ccc(COc4c(-c5c(C)c(F)cc6[nH]ncc56)c(C5CC5)cc5c(N6C[C@@H]7C[C@H]6CN7)nc(OCC6(C(F)F)CCOCC6)nc45)cc3)nn2)cc1 [Example 65, (2S,4R)-1-((2S)-2-(4-(4-(((4-((1S,4S)-2,5-diazabicyclo[2.2.1]heptan-2-yl)-6-cyclopropyl-2-((4-(difluoromethyl)tetrahydro-2H-pyran-4-yl)methoxy)-7-(6-fluoro-5-methyl-1H-indazol-4-yl)quinazolin-8-yl)oxy)methyl)phenyl)-1H-1,2,3-triazol-1-yl)-3-methylbutanoyl)-N—((R)-1-(4-(1-ethyl-1H-pyrazol-5-yl)phenyl)-2-hydroxyethyl)-4-hydroxypyrrolidine-2-carboxamide]
> 1000 nM	> 1000 nM	CO[C@@H](C)COc1nc(N2C[C@@H]3C[C@H]2CN3)c2cc(C3CC3)c(-c3c(C)c(F)cc4[nH]ncc34)c(OCc3ccc(-c4cn([C@H](C(=O)N5C[C@H](O)C[C@H]5C(=O)N[C@H](c5ccc(S(F)(F)(F)(F)F)cc5)[C@H](C)O)C(C)C)nn4)cc3)c2n1 [Example 148, (2S,4R)-1-((2S)-2-(4-(4-(((4-((1S,4S)-2,5-diazabicyclo[2.2.1]heptan-2-yl)-6-cyclopropyl-7-(6-fluoro-5-methyl-1H-indazol-4-yl)-2-((S)-2-methoxypropoxy)quinazolin-8-yl)oxy)methyl)phenyl)-1H-1,2,3-triazol-1-yl)-3-methylbutanoyl)-4-hydroxy-N-((1R,2S)-2-hydroxy-1-(4-(pentafluoro-I6-sulfaneyl)phenyl)propyl)pyrrolidine-2-carboxamide]
10 to 100 nM	10 to 100 nM	CCn1nccc1-c1ccc([C@H](CO)NC(=O)[C@@H]2C[C@@H](O)CN2C(=O)[C@H](C(C)C)n2cc(-c3ccc(COc4c(-c5c(C)c(F)cc6[nH]ncc56)c(C5CC5)cc5c(N6CCCCCC6)nc(OC[C@H](C)OC)nc45)cc3)nn2)cc1 [Example 177, (2S,4R)-1-((2S)-2-(4-(4-(((4-(azepan-1-yl)-6-cyclopropyl-7-(6-fluoro-5-methyl-1H-indazol-4-yl)-2-((S)-2-methoxypropoxy)quinazolin-8-yl)oxy)methyl)phenyl)-1H-1,2,3-triazol-1-yl)-3-methylbutanoyl)-N—((R)-1-(4-(1-ethyl-1H-pyrazol-5-yl)phenyl)-2-hydroxyethyl)-4-hydroxypyrrolidine-2-carboxamide]
< 10 nM	< 10 nM	Cc1ncsc1-c1ccc([C@H](CO)NC(=O)[C@@H]2C[C@@H](O)CN2C(=O)[C@H](C(C)C)n2cc(-c3ccc(COc4c(-c5c(C)c(F)cc6[nH]ncc56)c(C5CC5)cc5c(N6CC7CCC(C6)N7)nc(OC6CCOCC6)nc45)cc3)nn2)cc1 [Example 49, (2S,4R)-1-((2S)-2-(4-(4-(((4-(3,8-diazabicyclo[3.2.1]octan-3-yl)-6-cyclopropyl-7-(6-fluoro-5-methyl-1H-indazol-4-yl)-2-((tetrahydro-2H-pyran-4-yl)oxy)quinazolin-8-yl)oxy)methyl)phenyl)-1H-1,2,3-triazol-1-yl)-3-methylbutanoyl)-4-hydroxy-N—((R)-2-hydroxy-1-(4-(4-methylthiazol-5-yl)phenyl)ethyl)pyrrolidine-2-carboxamide]

SMILES	IC50 [1]	DC50 [2]
CCn1nccc1-c1ccc([C@@H](NC(=O)[C@@H]2C[C@@H](O)CN2C(=O)[C@H](C(C)C)n2cc(-c3ccc(COc4c(-c5c(C)c(F)cc6[nH]ncc56)c(C5CC5)cc5c(N6CCCNCC6)nc(O[C@H]6C[C@H](OC)C6)nc45)cc3)nn2)[C@H](C)O)cc1 [Example 156, (2S,4R)-1-((2S)-2-(4-(4-(((6-cyclopropyl-4-(1,4-diazepan-1-yl)-7-(6-fluoro-5-methyl-1H-indazol-4-yl)-2-((1r,3r)-3-methoxycyclobutoxy)quinazolin-8-yl)oxy)methyl)phenyl)-1H-1,2,3-triazol-1-yl)-3-methylbutanoyl)-N-((1R,2S)-1-(4-(1-ethyl-1H-pyrazol-5-yl)phenyl)-2-hydroxypropyl)-4-hydroxypyrrolidine-2-carboxamide]	< 10 nM	< 10 nM
